Test results published in patent US20090099169A1, “Benzofuran Compounds As EP1 Receptor Antagonists” (GLAXO GROUP LIMITED, priority 2006, published 2009).
Counter-ions that a name gives are not always drawn.

Legend:
[1] = system: rat model of chronic constriction injury; settings: Anesthesia and Analgesia 2001, 93, 1012-7; cited from earlier work
[2] = system: rodent model of post-operative pain; settings: Anesthesia and Analgesia 2001, 92, 233-238; cited from earlier work
[3] = system: gastric lesions induced by taurocholate acid, aspirin or indomethacin; settings: rats, Ogletree et al 1992; cited from earlier work
human EP3 receptor = target: T1, human EP3 receptor (Homo sapiens, UniProt P43115); assay: human EP3 calcium mobilisation assay; type: cell-based; settings: CHO-K1 cells, antagonism of PGE2; averages of a number of experiments; read-out: functional pKi value (human EP3 calcium mobilisation assay) (converted)
T1 construct: expressed in transfected cells; host or cells: CHO-K1
T1 sequence (P43115 1-390): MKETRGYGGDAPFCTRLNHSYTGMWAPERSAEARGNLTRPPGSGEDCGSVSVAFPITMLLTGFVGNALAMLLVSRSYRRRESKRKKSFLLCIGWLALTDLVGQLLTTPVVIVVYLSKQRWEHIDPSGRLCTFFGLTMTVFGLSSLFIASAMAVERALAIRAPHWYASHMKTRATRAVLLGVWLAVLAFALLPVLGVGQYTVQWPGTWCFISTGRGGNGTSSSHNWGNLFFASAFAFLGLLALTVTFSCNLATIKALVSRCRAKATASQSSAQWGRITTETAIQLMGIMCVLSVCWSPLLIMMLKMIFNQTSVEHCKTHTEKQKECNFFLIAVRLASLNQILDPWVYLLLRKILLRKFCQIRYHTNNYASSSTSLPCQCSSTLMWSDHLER
Description: (§1) Briefly, the antagonist properties of compounds are assessed by their ability to inhibit the mobilisation of intracellular calcium ([Ca^2+]i) in response to activation of EP1 or EP3 receptors by the natural agonist hormone prostaglandin E2 (PGE2). Increasing concentrations of antagonist reduce the amount of calcium that a given concentration of PGE2 can mobilise. The net effect is to displace the PGE2 concentration-effect curve to higher concentrations of PGE2. The amount of calcium produced is assessed using a calcium-sensitive fluorescent dye such as Fluo-4, AM and a suitable instrument such as a Fluorimetric Imaging Plate Reader (FLIPR). Increasing amounts of [Ca^2+]i produced by receptor activation increase the amount of fluorescence produced by the dye and give rise to an increasing signal. The signal may be detected using the FLIPR instrument and the data generated may be analysed with suitable curve-fitting software.
(§2) The human EP1 or EP3 calcium mobilisation assay (hereafter referred to as ‘the calcium assay’) utilises Chinese hamster ovary-K1 (CHO-K1) cells into which a stable (PCIN; BioTechniques 20 (1996): 102-110) vector containing either EP1 or EP3 cDNA has previously been transfected. Cells are cultured in suitable flasks containing culture medium such as DMEM:F-12 supplemented with 10% v/v foetal calf serum, 2 mM L-glutamine, 0.25 mg/ml geneticin, 100 μM flurbiprofen and 10 μg/ml puromycin.
(§3) For assay, cells are harvested using a proprietary reagent that dislodges cells such as Versene. Cells are re-suspended in a suitable quantity of fresh culture media for introduction into a 384-well plate. Following incubation for 24 hours at 37° C. the culture media is replaced with a medium containing Fluo-4 and the detergent pluronic acid, and a further incubation takes place. Concentrations of compounds are then added to the plate in order to construct concentration-effect curves. This may be performed on the FLIPR in order to assess the agonist properties of the compounds. Concentrations of PGE2 are then added to the plate in order to assess the antagonist properties of the compounds.
The data so generated may be analysed by means of a computerised curve-fitting routine. The concentration of compound that elicits a half-maximal inhibition of the calcium mobilisation induced by PGE2 (pIC50) may then be estimated.

human EP1 receptor [4] = target: T2, human EP1 receptor (Homo sapiens, UniProt P34995); assay: human EP1 calcium mobilisation assay; type: cell-based; set-up: expressed in transfected cells; settings: CHO-K1 cells, antagonism of PGE2; averages of a number of experiments; read-out: functional pKi value (human EP1 calcium mobilisation assay) (converted)
T2 sequence (P34995 1-402): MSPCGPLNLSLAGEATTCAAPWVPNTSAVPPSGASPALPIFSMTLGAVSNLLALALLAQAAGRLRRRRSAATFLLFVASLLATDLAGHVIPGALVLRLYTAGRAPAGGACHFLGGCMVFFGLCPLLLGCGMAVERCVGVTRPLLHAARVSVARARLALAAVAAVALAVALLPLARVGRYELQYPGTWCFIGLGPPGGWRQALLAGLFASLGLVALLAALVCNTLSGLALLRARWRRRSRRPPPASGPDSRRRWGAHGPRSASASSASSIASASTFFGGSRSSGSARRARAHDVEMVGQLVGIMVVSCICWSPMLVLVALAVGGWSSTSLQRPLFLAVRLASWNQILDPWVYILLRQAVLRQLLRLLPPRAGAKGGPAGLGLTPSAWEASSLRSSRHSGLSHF
In short: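 CHO-K1 cells stably transfected with human EP1 or EP3, loaded with Fluo-4 after 24 h culture, treated with compound, then challenged with PGE2. Calcium-driven fluorescence read on FLIPR; pIC50 is half-maximal inhibition of PGE2-induced calcium mobilisation, from curve fitting.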

human EP1 receptor [5] = target: T2, human EP1 receptor; assay: Binding assay for the human prostanoid EP1 receptor (radioligand competition); set-up: expressed in transfected cells; host or cells: CHO-K1 (membranes); settings: CHO-K1 membranes; [3H]-PGE2 for Examples 1-17, 19, 33, 34, 60 and 61, 3-{2-[5-Bromo-2-(2,4-difluorobenzyloxy)-phenyl]-5-methyl-pyrrol-1-yl}-6-[3H3-methoxy]methoxy-benzoic acid for the remaining; averages of a number of experiments; read-out: pIC50 value (binding assay for the human prostanoid EP1 receptor) (converted)
In short: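 Membranes from CHO-K1 cells stably expressing human EP1, in pH 6 MES buffer with 10 mM MgCl2. Competition with [3H]-PGE2 (3 nM final) for 30 min at 30 °C, or alternatively with a tritiated benzoic-acid ligand (0.2 nM final) for 45 min at 37 °C; filtration and scintillation counting, IC50 by non-linear fitting.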

human TP receptor = target: T3, human TP receptor (Homo sapiens, UniProt P21731); assay: human TP calcium mobilisation assay; type: cell-based; settings: CHO-K1 cells, antagonism of U46619; averages of a number of experiments; read-out: functional pKi value (human TP calcium mobilisation assay) (converted)
T3 construct: expressed in transfected cells; host or cells: CHO-K1
T3 sequence (P21731 1-343): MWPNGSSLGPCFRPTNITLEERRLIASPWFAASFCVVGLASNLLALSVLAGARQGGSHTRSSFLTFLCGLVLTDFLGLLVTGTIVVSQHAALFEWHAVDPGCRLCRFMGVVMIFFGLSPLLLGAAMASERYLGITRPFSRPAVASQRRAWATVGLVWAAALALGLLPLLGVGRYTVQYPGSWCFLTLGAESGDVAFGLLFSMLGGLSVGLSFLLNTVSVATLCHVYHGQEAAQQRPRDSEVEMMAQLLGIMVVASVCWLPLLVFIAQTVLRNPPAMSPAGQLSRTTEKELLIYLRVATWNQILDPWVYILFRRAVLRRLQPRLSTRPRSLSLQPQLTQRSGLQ
Description: as §1, with “To determine if a compound has agonist or antagonist activity at the TP receptor a functional calcium mobilisation assay may be performed. Briefly,” for “Briefly,”, “TP” for “EP1 or EP3”, “stable TXA2 mimetic U46619 (9,11-dideoxy-11α,9α-epoxy-methanoprostaglandin F2α; commercially available from e.g Sigma-Aldrich).” for “natural agonist hormone prostaglandin E2 (PGE2).”, “U46619” for “PGE2”, “curve.” for “curve to higher concentrations of PGE2.”, “software. The agonist activity of the compounds are determined by their ability to cause an increase in intracellular mobilisation in the absence of U46619.” for “software.”
as §2, with “TP” for “EP1 or EP3”, “assay” for “assay (hereafter referred to as ‘the calcium assay’)”, “(pCIN;” for “(PCIN;”, “TP” for “either EP1 or EP3”
as §3, with “96-well” for “384-well”, “U46619” for “PGE2”
The data so generated may be analysed by means of a computerised curve-fitting routine. The concentration of compound that elicits a half-maximal inhibition of the calcium mobilisation induced by U46619 (pIC50) may then be estimated, and the percentage activation caused by the compounds directly can be used to determine if there is any agonism present.

SMILES | Ki (human EP3 receptor) [µM] | Ki (human EP1 receptor [4]) [nM] | IC50 (human EP1 receptor [5]) [nM] | other results
Cc1cc(Cl)ccc1S(=O)(=O)NC[C@H]1C2CCC(CC2)[C@@H]1/C=C\CCCC(=O)O [ONO-8711] |  |  |  | hyperalgesia and allodynia [1]: reduces hyperalgesia and allodynia; mechanical hyperalgesia [2]: inhibits mechanical hyperalgesia
O=C(O)Cc1ccc(CCNS(=O)(=O)c2ccc(Cl)cc2)cc1 [BM 13505] |  |  |  | gastric lesions [3]: inhibit gastric lesions
CC(C)c1cc2cc(Cl)cc(Cc3ccc(C(=O)Nc4ccc(CN5CCC(O)CC5)cc4)o3)c2o1 [Example 55, 5-{[5-Chloro-2-(1-methylethyl)-1-benzofuran-7-yl]methyl}-N-{4-[(4-hydroxy-1-piperidinyl)methyl]phenyl}-2-furancarboxamide Hydrochloride] | 0.501 to 10 | ≤ 316 | ≤ 100 | 
CCCc1cc2cc(Cl)cc(Cn3nc(C(=O)O)cc3C)c2o1 [Example 21, 1-[(5-chloro-2-propyl-1-benzofuran-7-yl)methyl]-5-methyl-1H-pyrazole-3-carboxylic Acid] | 0.501 to 10 | ≤ 316 | ≤ 100 | 
Cc1cc(C(=O)O)nn1Cc1cc(Cl)cc2cc(C3CCCCC3)oc12 [Example 26, 1-[(5-Chloro-2-cyclohexyl-1-benzofuran-7-yl)methyl]-5-methyl-1H-pyrazole-3-carboxylic Acid] | 0.501 to 10 | ≤ 316 | ≤ 100 | 
CC(C)c1cc2cc(Cl)cc(Cc3ccc(C(=O)Nc4c(F)cccc4F)o3)c2o1 [Example 8, 5-{[5-Chloro-2-(1-methylethyl)-1-benzofuran-7-yl]methyl}-N-(2,6-difluorophenyl)-2-furancarboxamide] | 0.501 to 10 |  |  | Ki (human TP receptor): > 3.16 µM
CC(C)c1cc2cc(Cl)cc(Cc3ccc(-c4nc5ccccc5[nH]4)o3)c2o1 [Example 2, 2-(5-{[5-Chloro-2-(1-methylethyl)-1-benzofuran-7-yl]methyl}-2-furanyl)-1H-benzimidazole Hydrochloride] |  |  | ≤ 100 | Ki (human TP receptor): > 3.16 µM
